Columns and labels:
[1] = SPR glucose detection on immobilized GGBP sensor surfaces (BIACORE); type: binding; conditions: for glucose detection by SPR using thiol-coupled mutants (FIG. 8): 0.1 mM and 1 mM glucose, thiol-coupled surfaces; for SPR Signal, Buffer: running buffer injection
Procedure: Proteins were immobilized onto a carboxymethyldextran (CM5) sensor surface (BIACORE) by thiol coupling using standard thiol coupling chemistry with a flow rate of 5 μl/min in 10 mM HEPES pH 7.4, 150 mM NaCl, 0.05% BIACORE Surfactant P20 (BIAcore) (HBS-P) running buffer. The sensor surface was activated with a 2 minute pulse of […] (EDC/NHS) followed by a 4 min pulse of 80 mM 2-(2-pyridinyldithio) ethaneamine (PDEA), 0.1 M sodium borate pH 8.5, E149C GGBP (1.8 mg/ml) was injected at a 1:50 dilution in 10 mM sodium acetate pH 4.5 for various times. Carbonic anhydrase 11 (5 mg/ml) was injected at 1:10 dilution in 10 mM sodium acetate pH 4.5 for 20 minutes. G74C GGBP (2.6 mg/ml) was injected at 1:50 dilution in 10 mM sodium acetate pH 4.5 for 12 minutes. A213C GGBP (0.6 mg/ml) was injected at 1:20 dilution in 10 mM sodium acetate pH 4.5 for 2 4 minutes. A 4 minute pulse of 50 mM cysteine, 1 M NaCl, 0.1 M sodium formate pH 4.3 was used to quench the reaction and remove non-specifically bound protein from the surface. Following immobilization, the protocol DESORB (0.5% SDS, 50 mM glycine pH 9.5) was run to remove protein aggregates from the system. Surfaces of 3000 RU (E149C GGBP), 4500 RU (carbonic anydrase), 2000 RU (A213C GGBP), and 4000 RU (G74C GGBP) were used for experiments.
Proteins were immobilized onto a Carboxymethyldextran (CM5) sensor surface (BIAcore) by amine coupling using standard amine coupling chemistry with a flow rate of 5 μl/min in HBS-P running buffer. The surface was activated with a 7 minute pulse of EDC/NHS. Proteins (WT GGBP, 2 mg/ml; E149C GGBP, 1.8 mg/ml) were injected at a 1:50 dilution in 10 mM sodium acetate pH 4.5 for 20 minutes. A pulse of 1 M ethanolamine pH 8.0 was injected to quench the reaction and remove nonspecifically bound protein. Surfaces of 4800 RU for E149C and 2400 RU for wild type GGBP were used for experiments.
Thiol coupling of E149C GGBP on C1 surfaces was carried out as follows. E149C GGBP was immobilized on a carboxymethyl (C1) chip using standard thiol coupling chemistry with a flow rate of 5 μl/min in HBS-P running buffer. The C1 surface was activated with a 4 min pulse of EDC/NHS followed by a 4 min pulse of 80 mM PDEA of 0.1 M sodium borate pH 8.5. E149C GGBP (1.8 mg/ml) was injected at a 1:2 dilution in 10 mM sodium acetate pH 4.5 for 50 minutes at a flow rate of 1 μl/min. A 7 minute pulse of 50 mM cysteine, 1M NaCl, 0.1 M sodium formate pH 4.3 was used to quench the reaction and remove non-specifically bound protein from the surface. A surface of 9000 RU was used for experiments.
Amine coupling of E149C GGBP on C1 surfaces. E149C GGBP was immobilized on a C1 chip using standard amine coupling chemistry with a flow rate of 5 μl/min in HBS-P running buffer. The surface was activated with a 7 minute pulse of EDC/NHS. E149C GGBP (1.8 mg/ml) was injected at a 1:2 dilution in 1 0 MM sodium acetate pH 4.5 for 50 minutes at a flow rate of 1 μl/min. A pulse of 1 M ethanolamine pH 8.0 was injected to quench the reaction and remove nonspecifically bound protein.
All glucose injections were performed at 25° C. in the appropriate running buffer for the specific experiment. Glucose injections were 10 μl at a flow rate of 10 μl/min (1 minute contact time). Injections of different glucose concentrations were repeated three times and alternated between the protein and blank surfaces. The protein surface was regenerated by washing of the flow channel with running buffer followed by a running buffer injection. Sensorgrams were either blank surface subtracted or were double referenced by first subtracting the glucose injection over a blank surface from the corresponding glucose injection on the protein surface. A buffer injection over the blank surface was then subtracted from a buffer injection over the protein surface. The final sensorgram was obtained by subtracting the normalized buffer injection from the normalized glucose injection. […]

[2] = SPR response of thiol coupled E149C GGBP to a panel of sugars; type: binding; conditions: sugars at 100 μM, 3000 RU thiol-coupled surface
Procedure: All glucose injections were performed at 25° C. in the appropriate running buffer for the specific experiment. Glucose injections were 10 μl at a flow rate of 10 μl/min (1 minute contact time). Injections of different glucose concentrations were repeated three times and alternated between the protein and blank surfaces. The protein surface was regenerated by washing of the flow channel with running buffer followed by a running buffer injection. Sensorgrams were either blank surface subtracted or were double referenced by first subtracting the glucose injection over a blank surface from the corresponding glucose injection on the protein surface. A buffer injection over the blank surface was then subtracted from a buffer injection over the protein surface. The final sensorgram was obtained by subtracting the normalized buffer injection from the normalized glucose injection.
FIG. 2 depicts the specificity of E149C mutated GGBP to bind glucose preferentially. The indicated sugars were injected at a concentration of 100 μM on a 3000 RU thiol-coupled E149C surface. Double referenced sensorgrams were averaged during the time frame corresponding between 10 and 50 seconds during the injection. Each injection was done in triplicate.

[3] = amine coupling, CM5 chip, 100 μM glucose
[4] = thiol coupling, CM5 chip, 100 μM glucose, blank subtracted or double referenced

A213C GGBP H6: GGBP with cysteine substituted for alanine at position 213, histidine tag
glucose detection by SPR using thiol-coupled mutants (FIG. 8) [1]: signal-enhanced glucose detection
SPR Signal, Buffer ([1]; thiol coupling, CM5 chip): −0.5 ± 0.4 RU
SPR Signal at Saturating Amounts of Glucose ([1]; thiol coupling, CM5 chip, 1 mM glucose): 119 ± 0.4/ RU

E149C GGBP H6: E. coli GGBP with cysteine substituted for glutamic acid at position 149, C-terminal six-histidine tag
glucose detection on C1 surface (FIG. 7) ([1]; 100 μM glucose, 2000 RU amine-coupled surface): does not result in glucose binding
glucose detection on C1 surface (FIG. 6) ([1]; 100 μM glucose, 9000 RU thiol-coupled protein surface): Glucose detection is evident
signal upon glucose binding, thiol-coupling in comparison to amino coupling or buffer only (FIG. 1) ([1]; 100 µM glucose, one minute injection): significantly enhanced signal
SPR Signal at Saturating Amounts of Glucose ([1]; amine coupling, C1 chip, 1 mM glucose): −4.9 ± 5.3/ RU
SPR Signal at Saturating Amounts of Glucose [1, 3]: 2.1 ± 5.5/ RU
SPR Signal, Buffer ([1]; amine coupling, C1 chip): 0.4 ± 3.1 RU
SPR Signal, Buffer ([1]; amine coupling, CM5 chip): 1.4 ± 3.1 RU
SPR Signal, Buffer ([1]; thiol coupling, C1 chip): 0.8 ± 1.5 RU
SPR Signal, Buffer ([1]; thiol coupling, CM5 chip): −0.5 ± 4.3 RU
SPR Signal, Buffer ([1]; thiol coupling, CM5 chip, denatured surface (neg control)): −1.4 ± 2.2 RU
SPR Signal, Buffer ([1]; thiol coupling, CM5 chip, refolded protein surface): −3.7 ± 1.5 RU
SPR Signal at Saturating Amounts of Glucose ([1]; thiol coupling, C1 chip, 100 μM glucose): 10.2 ± 2.8/ RU
SPR Signal at Saturating Amounts of Glucose [1, 4]: 17.7 ± 0.5/ RU
SPR Signal at Saturating Amounts of Glucose ([1]; thiol coupling, CM5 chip, denatured surface (neg control), 100 μM glucose): 0 ± 4.1/ RU
SPR Signal at Saturating Amounts of Glucose ([1]; thiol coupling, CM5 chip, refolded protein surface, 100 μM glucose): 11.4 ± 1.0/ RU
glucose signal after denaturation (FIG. 3) ([1]; thiol-coupled surface, 1 M guanidine HCl overnight, HBS-EP injections): did not result in glucose signals
glucose signal after renaturation (FIG. 3) ([1]; thiol-coupled surface, HBS-P and 1.5 mM CaCl2, continuous flow overnight): Glucose signals were restored
specificity to bind glucose preferentially over other sugars (FIG. 2) [2]: glucose binds more readily

G74C GGBP H6: GGBP with cysteine substituted for glycine at position 74, histidine tag
glucose detection by SPR using thiol-coupled mutants (FIG. 8) [1]: signal-enhanced glucose detection
SPR Signal, Buffer ([1]; thiol coupling, CM5 chip): 2.7 ± 3.6 RU
SPR Signal at Saturating Amounts of Glucose [1, 4]: 22.3 ± 0.2/ RU

K137C GGBP H6: GGBP with cysteine substituted for lysine at position 137, histidine tag
SPR Signal, Buffer ([1]; thiol coupling, CM5 chip): 4.8 ± 3.2 RU
SPR Signal at Saturating Amounts of Glucose [1, 4]: 9.5 ± 4.2/ RU

WT GGBP H6: wild type E. coli Galactose/Glucose Binding Protein with histidine tag, non-thiol negative control [reference compound]
SPR Signal at Saturating Amounts of Glucose [1, 3]: 5.9 ± 2.3/ RU
SPR Signal, Buffer ([1]; amine coupling, CM5 chip): 2.9 ± 1.5 RU
